# Results from ChEMBL document CHEMBL1201862, “PubChem BioAssay data set” (2004).
#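 Cells were grown in 96-well plates and exposed to each compound for 48 hours at five concentrations; endpoints were interpolated linearly between bracketing concentrations, or set to the highest concentration if not reached. GI50 marks 50% less growth.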 Active and inactive are the calls of the source. Rule as the data show it: active = GI50 up to about 1.1 µM and inactive = higher.
# Experiments:
# Assay in all cases: NCI anticancer screen, dose series, 48 h
# [1] = system: 786-0
# [2] = system: A549
# [3] = system: ACHN
# [4] = system: CAKI-1
# [5] = system: CCRF-CEM
# [6] = system: COLO 205
# [7] = system: DLD-1
# [8] = system: DMS-114
# [9] = system: DMS-273
# [10] = system: EKVX
# [11] = system: HCC 2998
# [12] = system: HCT-116
# [13] = system: HCT-15
# [14] = system: HL-60
# [15] = system: HOP-18
# [16] = system: HOP-62
# [17] = system: HOP-92
# [18] = system: HT-29
# [19] = system: IGROV-1
# [20] = system: K562
# [21] = system: KM-20L2
# [22] = system: KM12
# [23] = system: LOX IMVI
# [24] = system: LXFL 529
# [25] = system: M14
# [26] = system: M19-MEL
# [27] = system: MOLT-4
# [28] = system: NCI-H226
# [29] = system: NCI-H23
# [30] = system: NCI-H460
# [31] = system: OVCAR-3
# [32] = system: OVCAR-4
# [33] = system: OVCAR-5
# [34] = system: OVCAR-8
# [35] = system: RPMI-8226
# [36] = system: RXF 393
# [37] = system: SF-268
# [38] = system: SF-295
# [39] = system: SF-539
# [40] = system: SK-MEL-28
# [41] = system: SK-MEL-2
# [42] = system: SK-MEL-5
# [43] = system: SK-OV-3
# [44] = system: SN12C
# [45] = system: SNB-19
# [46] = system: SNB-75
# [47] = system: SNB-78
# [48] = system: SR
# [49] = system: SW-620
# [50] = system: TK-10
# [51] = system: U-251
# [52] = system: UACC-257
# [53] = system: UACC-62
# [54] = system: UO-31
# [55] = system: XF498
# [56] = system: A498
# [57] = system: Malme-3M
# [58] = system: NCI-H522
structure (smiles),measurement,setting,value
FC(F)(F)C1(Cl)C(Cl)(c2ccccc2)C1(Cl)c1ccccc1 (stereo not given),GI50,[1],15.8 µM (inactive)
same,GI50,[2],14.7 µM (inactive)
same,GI50,[3],16.1 µM (inactive)
same,GI50,[4],13 µM (inactive)
same,GI50,[5],14.9 µM (inactive)
same,GI50,[6],19.2 µM (inactive)
same,GI50,[7],15.4 µM (inactive)
same,GI50,[8],15.6 µM (inactive)
same,GI50,[9],14.9 µM (inactive)
same,GI50,[10],16.3 µM (inactive)
same,GI50,[11],16.9 µM (inactive)
same,GI50,[12],11.9 µM (inactive)
same,GI50,[13],13.7 µM
same,GI50,[14],17.7 µM (inactive)
same,GI50,[15],11.1 µM (inactive)
same,GI50,[16],16.3 µM (inactive)
same,GI50,[17],12.3 µM (inactive)
same,GI50,[18],14.8 µM (inactive)
same,GI50,[19],12.9 µM (inactive)
same,GI50,[20],33.7 µM (inactive)
same,GI50,[21],13.9 µM (inactive)
same,GI50,[22],15.6 µM (inactive)
same,GI50,[23],13.3 µM (inactive)
same,GI50,[24],16.3 µM (inactive)
same,GI50,[25],16.4 µM (inactive)
same,GI50,[26],15.6 µM (inactive)
same,GI50,[27],10.3 µM (inactive)
same,GI50,[28],13.9 µM (inactive)
same,GI50,[29],14.3 µM (inactive)
same,GI50,[30],15.8 µM (inactive)
same,GI50,[31],14.9 µM (inactive)
same,GI50,[32],14.2 µM (inactive)
same,GI50,[33],16.4 µM (inactive)
same,GI50,[34],18 µM (inactive)
same,GI50,[35],27.7 µM (inactive)
same,GI50,[36],13.9 µM (inactive)
same,GI50,[37],17.3 µM (inactive)
same,GI50,[38],15.8 µM (inactive)
same,GI50,[39],16.1 µM (inactive)
same,GI50,[40],14.9 µM (inactive)
same,GI50,[41],15.7 µM (inactive)
same,GI50,[42],14 µM (inactive)
same,GI50,[43],23.1 µM (inactive)
same,GI50,[44],15.2 µM (inactive)
same,GI50,[45],18.5 µM (inactive)
same,GI50,[46],16.3 µM (inactive)
same,GI50,[47],17.8 µM (inactive)
same,GI50,[48],7.08 µM (inactive)
same,GI50,[49],15.7 µM (inactive)
same,GI50,[50],18.6 µM (inactive)
same,GI50,[51],14.7 µM (inactive)
same,GI50,[52],14.6 µM (inactive)
same,GI50,[53],15.8 µM (inactive)
same,GI50,[54],14.8 µM (inactive)
same,GI50,[55],15.7 µM (inactive)
O=C1/C(=N\O)c2ccccc2S1(=O)=O,GI50,[1],61 µM (inactive)
same,GI50,[56],39.7 µM (inactive)
same,GI50,[2],> 100 µM (inactive)
same,GI50,[3],> 100 µM (inactive)
same,GI50,[4],16.6 µM (inactive)
same,GI50,[5],60 µM (inactive)
same,GI50,[6],13.6 µM (inactive)
same,GI50,[7],> 100 µM (inactive)
same,GI50,[8],> 100 µM (inactive)
same,GI50,[9],> 100 µM (inactive)
same,GI50,[11],18.4 µM (inactive)
same,GI50,[12],> 100 µM (inactive)
same,GI50,[13],> 100 µM
same,GI50,[14],25.2 µM (inactive)
same,GI50,[15],> 100 µM (inactive)
same,GI50,[16],> 100 µM (inactive)
same,GI50,[17],> 100 µM (inactive)
same,GI50,[18],> 100 µM (inactive)
same,GI50,[19],> 100 µM (inactive)
same,GI50,[20],> 100 µM (inactive)
same,GI50,[21],> 100 µM (inactive)
same,GI50,[22],> 100 µM (inactive)
same,GI50,[23],> 100 µM (inactive)
same,GI50,[24],69.2 µM (inactive)
same,GI50,[25],> 100 µM (inactive)
same,GI50,[26],> 100 µM (inactive)
same,GI50,[27],> 100 µM (inactive)
same,GI50,[57],55.3 µM (inactive)
same,GI50,[28],19.4 µM (inactive)
same,GI50,[30],> 100 µM (inactive)
same,GI50,[58],60 µM (inactive)
same,GI50,[32],> 100 µM (inactive)
same,GI50,[33],> 100 µM (inactive)
same,GI50,[34],> 100 µM (inactive)
same,GI50,[35],64.3 µM (inactive)
same,GI50,[36],> 100 µM (inactive)
same,GI50,[37],80.9 µM (inactive)
same,GI50,[38],> 100 µM (inactive)
same,GI50,[39],> 100 µM (inactive)
same,GI50,[41],> 100 µM (inactive)
same,GI50,[42],> 100 µM (inactive)
same,GI50,[43],> 100 µM (inactive)
same,GI50,[44],> 100 µM (inactive)
same,GI50,[45],> 100 µM (inactive)
same,GI50,[46],66.2 µM (inactive)
same,GI50,[47],> 100 µM (inactive)
same,GI50,[48],79.3 µM (inactive)
same,GI50,[49],> 100 µM (inactive)
same,GI50,[50],61.5 µM (inactive)
same,GI50,[51],> 100 µM (inactive)
same,GI50,[52],> 100 µM (inactive)
same,GI50,[53],95.9 µM (inactive)
same,GI50,[54],> 100 µM (inactive)
O=C1OC(c2cccc(C(F)(F)F)c2)(c2cccc(C(F)(F)F)c2)c2ccc3ccccc3c21,GI50,[1],> 10 µM (inactive)
same,GI50,[56],> 10 µM (inactive)
same,GI50,[2],> 10 µM (inactive)
same,GI50,[3],3.64 µM (inactive)
same,GI50,[4],26.7 µM (inactive)
same,GI50,[5],7.85 µM (inactive)
same,GI50,[6],> 10 µM (inactive)
same,GI50,[7],> 10 µM (inactive)
same,GI50,[8],6.18 µM (inactive)
same,GI50,[9],> 10 µM (inactive)
same,GI50,[10],> 10 µM (inactive)
same,GI50,[11],> 10 µM (inactive)
same,GI50,[12],8.45 µM (inactive)
same,GI50,[13],9.25 µM
same,GI50,[14],3.56 µM (inactive)
same,GI50,[15],> 10 µM (inactive)
same,GI50,[16],> 10 µM (inactive)
same,GI50,[17],28.8 µM (inactive)
same,GI50,[18],> 10 µM (inactive)
same,GI50,[19],> 10 µM (inactive)
same,GI50,[20],8.04 µM (inactive)
same,GI50,[21],7.67 µM (inactive)
same,GI50,[22],79.1 µM (inactive)
same,GI50,[23],> 10 µM (inactive)
same,GI50,[24],8.24 µM (inactive)
same,GI50,[25],> 10 µM (inactive)
same,GI50,[27],4.66 µM (inactive)
same,GI50,[57],4.79 µM (inactive)
same,GI50,[28],85.5 µM (inactive)
same,GI50,[29],7.85 µM (inactive)
same,GI50,[30],> 10 µM (inactive)
same,GI50,[58],> 10 µM (inactive)
same,GI50,[31],4.23 µM (inactive)
same,GI50,[32],> 10 µM (inactive)
same,GI50,[33],> 10 µM (inactive)
same,GI50,[34],> 10 µM (inactive)
same,GI50,[35],4.24 µM (inactive)
same,GI50,[36],5.65 µM (inactive)
same,GI50,[37],9.59 µM (inactive)
same,GI50,[38],15.2 µM (inactive)
same,GI50,[39],> 100 µM (inactive)
same,GI50,[40],> 10 µM (inactive)
same,GI50,[41],> 10 µM (inactive)
same,GI50,[42],4.59 µM (inactive)
same,GI50,[43],> 10 µM (inactive)
same,GI50,[44],> 10 µM (inactive)
same,GI50,[45],11.2 µM (inactive)
same,GI50,[46],> 10 µM (inactive)
same,GI50,[47],> 10 µM (inactive)
same,GI50,[48],> 10 µM (inactive)
same,GI50,[49],> 10 µM (inactive)
same,GI50,[50],> 10 µM (inactive)
same,GI50,[51],8.39 µM (inactive)
same,GI50,[52],13.1 µM (inactive)
same,GI50,[53],> 10 µM (inactive)
same,GI50,[54],> 10 µM (inactive)
same,GI50,[55],> 100 µM (inactive)
